1 molecule from EP3178809A1, “HYBRID MOLECULE WITH STRUCTURAL AND ACTIVITY ELEMENTS OF RESVERATROL AND DIALLYL SULFIDE” (Albert-Ludwigs-Universität Freiburg, priority 2015, dated 2017) can be followed below.

Entries after “also recorded” stand apart in the source; their conditions may differ.

Assay [1] concerns humane Magenkarzinomzellen MKN-45. Nature of the assay: Apoptosis induction in tumour cells (morphological criteria, duplicate assays). Conditions: MKN-45, apoptosis. Type of assay: cell-based, human. On the procedure: Nach 3 Stunden bei 37 ° C, 5 % CO2 wurden die Prozentsätze apoptotischer Zellen bestimmt. […] Nach 3 Stunden bei 37 ° C, 5 % CO2 wurden die Prozentsätze apoptotischer Zellen bestimmt.
Die Daten basieren allesamt auf der quantitativen Bestimmung der Apoptose mittels der klassischen morphologischen Kriterien Kernkondensation, Kernfragmentation und Membrane Blebbing nach definierten Inkubationszeiten bei 37°C.
Die Ansätze erfolgten bei einer Zelldichte von 125 000 Zellen/ml in 96-Loch-Platten mit einem Reaktionsvolumen von 100 µl. Alle Ansätze wurden als Doppelansätze geführt und pro Messpunkt wurden mindestens 200 Zellen morphologisch bewertet. Eine detaillierte Aufstellung der verwendeten Medien, Inhibitoren, Zellen ist in den Arbeiten Scheit and Bauer, 2015; Bauer und Zarkovic, 2014; Bauer et al., 2014; Bauer, 2015 beschrieben.
Um zu klären, ob das Hybridmolekül aus Struktur- und Wirkungselementen von Resveratrol und Diallyldisulfid in der Lage ist, Apoptose in Tumorzellen zu induzieren, und dabei zu prüfen, ob sich durch die Kombination der Einzelfunktionen in einem Molekül der Synergieeffekt bündeln ließ, wurden steigende Konzentrationen des Hybridmoleküls zu Magenkarzinomzellen der Linie MKN-45 gegeben. Die als Parallelansätze geführten Ansätze wurden sowohl ohne als auch in Anwesenheit von 2 mM des Singulettsauerstofffängers Histidin inkubiert, um zu prüfen, ob der durch das Hybridmolekül ausgelöste Effekt durch Singulettsauerstoff vermittelt wird. Zum Vergleich wurde das gleiche Experiment mit steigenden Konzentrationen DADS durchgeführt, ebenfalls mit und ohne Histidinzugabe. Nach 3,5 Stunden Inkubation wurde der Prozentsatz apoptotischer Zellen bestimmt.

In assay [2] the target is T1, NOX1 von Magenkarzinomzellen (Homo sapiens, UniProt Q9Y5S8).
T1 construct: endogenous in cells; host or cells: MKN-45
T1 sequence (Q9Y5S8 1-564): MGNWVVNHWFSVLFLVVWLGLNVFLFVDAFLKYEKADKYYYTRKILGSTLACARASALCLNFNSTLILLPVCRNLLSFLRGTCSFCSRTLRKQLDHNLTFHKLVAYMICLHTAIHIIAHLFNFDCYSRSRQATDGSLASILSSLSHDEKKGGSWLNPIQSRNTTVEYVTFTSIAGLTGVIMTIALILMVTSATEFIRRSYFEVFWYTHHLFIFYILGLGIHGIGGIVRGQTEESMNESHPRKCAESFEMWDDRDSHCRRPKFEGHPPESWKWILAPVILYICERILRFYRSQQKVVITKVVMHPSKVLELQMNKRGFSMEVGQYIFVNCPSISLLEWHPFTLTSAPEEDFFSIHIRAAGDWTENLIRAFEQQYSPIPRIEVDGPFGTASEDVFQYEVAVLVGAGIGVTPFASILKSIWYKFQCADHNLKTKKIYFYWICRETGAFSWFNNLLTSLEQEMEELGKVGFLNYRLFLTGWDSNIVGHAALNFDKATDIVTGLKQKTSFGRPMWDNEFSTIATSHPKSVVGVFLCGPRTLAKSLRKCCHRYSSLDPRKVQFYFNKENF
T1 sequence (P13498 1-195 partner): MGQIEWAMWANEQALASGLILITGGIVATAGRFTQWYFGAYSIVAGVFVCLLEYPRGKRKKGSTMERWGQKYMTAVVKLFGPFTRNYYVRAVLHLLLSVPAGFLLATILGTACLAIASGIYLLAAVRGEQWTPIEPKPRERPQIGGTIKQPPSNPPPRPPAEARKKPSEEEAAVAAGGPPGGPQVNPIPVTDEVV
Briefly: Stimulation of superoxide anion production (shift of Cu/ZnSOD inhibition curve of 3-AT-reactivated apoptosis signalling). Type of assay: cell-based. The following applies: 0.9 µM, MKN-45, 100 mM 3-AT plus Cu/ZnSOD, 5,5 Stunden. On the procedure:
MKN-45-Zellen unter Standardbedingungen erhielten zunächst keinen Zusatz (Kontrolle) oder 0.9 µM Resveratrol oder der Resveratrolderivate HT 161, HT 163, HT 182, die durch unterschiedliche Blockierung der drei vorhandenen OH-Gruppen gekennzeichnet sind. Dabei waren beim Derivat HT 161 alle drei OH-Gruppen durch TBS (tert-Butyldimethylsilyl) blockiert, beim Derivat HT 163 die beiden OH-Gruppen in den Positionen 3'und 5'blockiert und beim Derivat HT 182 selektiv nur die OH-Gruppe in der Position 4'blockiert.
Danach erfolgte die Zugabe von 100 mM 3-AT (Katalasehemmstoff) und der angegebenen Konzentrationen von Cu/ZnSOD. Nach 5,5 Stunden erfolgte die Bestimmung der Prozentsätze apoptotischer Zellen in Doppelansätzen.
Da 3-AT Superoxidanionen-abhängiges interzelluläres Apoptose-auslösendes Signaling reaktiviert, wird der Prozess durch Cu/Zn-SOD blockiert, wobei sich eine typische Glockenkurve ausbildet. Der biochemische Grund dafür wird in Bauer et al., Carcinogenesis 35: 1582-1591, 2014 dargestellt.
Die Messung der extrazellulären Superoxidanionenkonzentration von Tumorzellen sowie die Bestrahlungstechnik mit Niedrigdosis-Gammastrahlung wird in der Arbeit Temme and Bauer, 2013 beschrieben. Die Hemmung der NOD wird bei Scheit and Bauer, 2015, beschrieben. Viele Versuchsergebnisse wurden in den Figuren dargestellt. […]

With `Oc1ccc(C=Cc2cc(O)cc(O)c2)cc1` [Resveratrol], the “Synergieeffekt mit Taxol” value in assay [1] is reported as “Synergieeffekt”. In assay [1] (3,5 Stunden (Figur 10) or 5,5 Stunden (Figur 15)), the “Synergieeffekt mit DADS” value is “konzentrationsabhängigen beachtlichen Synergieeffekt; also recorded: zur Ausprägung eines Synergieeffektes mit DADS befähigt”. Also, in assay [2], the “stimulierende Wirkung auf die Superoxidanionensynthese” value is “Rechtsverschiebung der Kurve”.
